Data from patent publication US10670600B2, “Saposin-A derived peptides and uses thereof” (CHILDREN'S MEDICAL CENTER CORPORATION, priority 2007, dated 2020).
Bridge positions count the residues as written; N and C are the ends. Ends that are not written are not given here.

Legend:
[1] = test system: Psap in PC3-MycER cells; assay: Psap levels in PC3-MycER cells, western blot; format: cell-based, human; conditions: induction of Myc function
Procedure: For Western blotting, cells were harvested by mechanical scraping into 4° C. PBS, cell pellets were obtained by removing PBS after centrifugation at 13,000 rpm in a Heraeus Biofuge Fresco (Thermo Electron, Asheville, N.C.) for 2 min. Cells were then lysed in 50 mM Tris-HCl (pH 7.4), 150 mM NaCl, 1% NP40, 1 mM sodium orthovanadate, 5 mM NaF, 20 mM β-glycerophosphate, and complete protease inhibitor (Roche, Indianapolis, Ind.) and protein concentrations were determined by the BioRad protein assay (BioRad, Hercules, Calif.). Fifty micrograms of protein were loaded per well onto a 4-12% pre-cast Bis-Tris gel (BioRad, Hercules, Calif.). The protein extracts were electrophoresed and transferred to an immobilon-P membrane (Millipore, Bedford, Mass.). The membranes were blocked in 5% nonfat milk and incubated in primary antibody to Tsp-1 (Ab-11, LabVision, Fremont, Calif.), c-Myc and phospho-Myc (Cell Signaling Technology, Beverly, Mass.), Prosaposin (Santa Cruz Biotechnology, Santa Cruz, Calif.), β-actin (AbCam, Cambridge, UK). The membranes were then washed in PBS+0.1% Tween-20 and incubated with either HRP-conjugated goat anti-mouse or anti-rabbit secondary antibody (Jackson Immunoresearch Laboratories, West Grove, Pa.) followed by another wash. […] Protein volume intensity was determined using a Bio-Rad Chemi-Doc XRS system (Bio-Rad, CA). […]

[2] = test system: p53 in WI-38 fibroblasts; assay: p53 expression in WI-38 fibroblasts, western blot; format: cell-based, human
[3] = test system: Tsp-1 expression in WI-38 lung fibroblasts; assay: Tsp-1 expression in WI-38 lung fibroblasts, western blot; format: cell-based, human
Procedure: (§1) For the conditioned media assay, 1.5×10^6 tumor cells and fibroblasts cells were grown in the tumor cell media containing 0.1% FBS for 12 hours at which point the conditioned media from the tumor cells was centrifuged to remove any cells or cell debris and transferred to the fibroblasts subsequent to removal of the low serum fibroblast growth media. All assays were performed a minimum of five times and representative samples depicted. The fibroblasts and media were harvested after 12 to 16 hours after addition of the tumor cell conditioned media and lysed for the western blot analysis while the conditioned media was collected for ELISA analysis. For the co-culture assays, 1×10^6 fibroblasts were seeded in the bottom chamber of transwell tissue culture plates (Corning Inc., Corning, N.Y.) and 1×10^6 tumor cells were seeded on the membrane in the top chamber of the plates. The two cell types were co-cultured for 40 to 44 hours in tumor cell media containing 0.1% FBS before harvesting and lysing the fibroblasts for western blot analysis and collecting the media for ELISA analysis.
For Western blotting, cells were harvested by mechanical scraping into 4° C. PBS, cell pellets were obtained by removing PBS after centrifugation at 13,000 rpm in a Heraeus Biofuge Fresco (Thermo Electron, Asheville, N.C.) for 2 min. Cells were then lysed in 50 mM Tris-HCl (pH 7.4), 150 mM NaCl, 1% NP40, 1 mM sodium orthovanadate, 5 mM NaF, 20 mM β-glycerophosphate, and complete protease inhibitor (Roche, Indianapolis, Ind.) and protein concentrations were determined by the BioRad protein assay (BioRad, Hercules, Calif.). Fifty micrograms of protein were loaded per well onto a 4-12% pre-cast Bis-Tris gel (BioRad, Hercules, Calif.). The protein extracts were electrophoresed and transferred to an immobilon-P membrane (Millipore, Bedford, Mass.). The membranes were blocked in 5% nonfat milk and incubated in primary antibody to Tsp-1 (Ab-11, LabVision, Fremont, Calif.), c-Myc and phospho-Myc (Cell Signaling Technology, Beverly, Mass.), Prosaposin (Santa Cruz Biotechnology, Santa Cruz, Calif.), β-actin (AbCam, Cambridge, UK). The membranes were then washed in PBS+0.1% Tween-20 and incubated with either HRP-conjugated goat anti-mouse or anti-rabbit secondary antibody (Jackson Immunoresearch Laboratories, West Grove, Pa.) followed by another wash. The membrane was then developed with ECL reagent (Pierce, Rockford, Ill.) and exposed on film. Protein volume intensity was determined using a Bio-Rad Chemi-Doc XRS system (Bio-Rad, CA). […]
Seven 20-amino acid (20-mer) peptides derived from saposin A were tested for ability to stimulate Tsp-1 expression in fibroblasts. […] WI-38 lung fibroblasts were treated with these peptides overnight and the Tsp-1 expression was analyzed by Western blot analysis. […]

[4] = test system: MDM2 in WI-38 fibroblasts; assay: MDM2 protein levels in WI-38 fibroblasts, western blot; format: cell-based, human
[5] = test system: thrombospondin-1 (Tsp-1); assay: Tsp-1 expression in lungs and livers of treated mice, western blot; format: in vivo
Procedure: The 20-mer […] (SEQ. ID. No. 29) was tested in vivo in mice for their ability to induce Tsp-1 expression. Four mice were treated with the 20-amino acid peptide (residues 31-50 of saposin A) at a dose of 30 mg/kg/day in combination with 200 μL of conditioned media (CM) from the metastatic prostate cancer cell line PC3M-LN4. […] Another four mice were treated with CM from PC3M-LN4 alone, and a control group of four mice with treated with vehicle (PBS) alone. […] Mice were treated for 9 days after which they were sacrificed and the lungs and livers were harvested and lysed. Tissue lysates were then run on a 4-12% gradient bis-tris polyacrylamide gel and transferred to a nitrocellulose membrane for western blotting with antibodies specific for thrombospondin-1 (Tsp-1) and β-actin.

[6] = test system: p53 expression in prostate fibroblasts; assay: p53 expression in prostate fibroblasts, western blot; format: cell-based, human
Procedure: Methods of assaying the effects of mutant, fragment or variant Psap on Tsp-1 and p53 expression are described herein. Briefly, full-length, mutant, fragment and variant Psap are applied to the cell cultures prostate fibroblast. The conditioned media from PC3M-LN4 (LN4) and PC3 cells are used as controls, with PC3 as positive/stimulating control and LN4 as negative/inhibiting controls. After a period of included (˜16 h), the cells are harvested, rinsed, and lysed. The lysates are analyzed for the level of Tsp-1 and p53 expression by western blot analyses, with β-actin as the internal lysate protein loading control. […]
For Western blotting, cells were harvested by mechanical scraping into 4° C. […] Cells were then lysed in 50 mM Tris-HCl (pH 7.4), 150 mM NaCl, 1% NP40, 1 mM sodium orthovanadate, 5 mM NaF, 20 mM β-glycerophosphate, and complete protease inhibitor (Roche, Indianapolis, Ind.) and protein concentrations were determined by the BioRad protein assay (BioRad, Hercules, Calif.). […] Protein volume intensity was determined using a Bio-Rad Chemi-Doc XRS system (Bio-Rad, CA).
Having determined that p53 protein levels were elevated in the stroma of PC3 tumors, the inventors determined if p53 stimulation could be responsible for the increased expression of Tsp-1. […]

[7] = test system: Tsp-1 expression in prostate fibroblasts; assay: Tsp-1 expression in prostate fibroblasts, western blot; format: cell-based, human; conditions: for stimulation of Tsp-1 by PC3 conditioned media in the presence of inhibitor: prostate fibroblasts treated with PC3 CM plus inhibitor
Procedure: Methods of assaying the effects of mutant, fragment or variant Psap on Tsp-1 and p53 expression are described herein. Briefly, full-length, mutant, fragment and variant Psap are applied to the cell cultures prostate fibroblast. The conditioned media from PC3M-LN4 (LN4) and PC3 cells are used as controls, with PC3 as positive/stimulating control and LN4 as negative/inhibiting controls. After a period of included (˜16 h), the cells are harvested, rinsed, and lysed. The lysates are analyzed for the level of Tsp-1 and p53 expression by western blot analyses, with β-actin as the internal lysate protein loading control.
as §1
For Western blotting, cells were harvested by mechanical scraping into 4° C. PBS, cell pellets were obtained by removing PBS after centrifugation at 13,000 rpm in a Heraeus Biofuge Fresco (Thermo Electron, Asheville, N.C.) for 2 min. Cells were then lysed in 50 mM Tris-HCl (pH 7.4), 150 mM NaCl, 1% NP40, 1 mM sodium orthovanadate, 5 mM NaF, 20 mM β-glycerophosphate, and complete protease inhibitor (Roche, Indianapolis, Ind.) and protein concentrations were determined by the BioRad protein assay (BioRad, Hercules, Calif.). Fifty micrograms of protein were loaded per well onto a 4-12% pre-cast Bis-Tris gel (BioRad, Hercules, Calif.). The protein extracts were electrophoresed and transferred to an immobilon-P membrane (Millipore, Bedford, Mass.). […] Protein volume intensity was determined using a Bio-Rad Chemi-Doc XRS system (Bio-Rad, CA).

[8] = test system: semaphorin 3F; assay: semaphorin 3F mRNA in WI-38 fibroblasts, real time RT-PCR; format: cell-based, human; conditions: conditioned media of cells with or without prosaposin, relative to GAPDH
Procedure: FIG. 25. mRNA levels of semaphorin 3F, relative to GAPDH, in WI-38 fibroblasts that were untreated (NoTxPrSc) treated with conditioned media from PC3, PC3-shprosaposin (PC3-sh), PC3M-LN4 (LN4) and PC3M-LN4 cells ectopically expressing prosaposin (LN4Psap) as determined by real time RT-PCR.
Finally, it was determined that prosaposin stimulates the expression of semaphorin 3F, a transcriptional target of p53 and an inhibitor of metastasis and lymphangiogenesis, at the mRNA level (FIG. 25).

[9] = WI-38 fibroblasts, in the presence of the cyclic 13-mer
[10] = WI-38 fibroblasts treated with peptide
[11] = WI-38 lung fibroblasts treated with peptide
[12] = mice treated for 9 days, versus control
[13] = mice, 30 mg/kg/day with 200 μL PC3M-LN4 CM, 9 days, compared to PC3M-LN4 CM

4-hydroxy-tamoxifen [4-HT]
reduction in Psap levels [1]: 4 fold

NC(=O)c1ccc(-c2nc(-c3ccc4c(c3)OCCO4)c(-c3ccccn3)[nH]2)cc1 [D4476, reference compound]
p53 protein level (in words) [2, 9]: reduction
Tsp-1 protein level (in words) [3, 9]: reduction
MDM2 protein level (in words) [4, 9]: increase

CDWLPKPNMSASC (disulfide 1-13) [SEQ. ID. No. 37, cyclic 13 amino acid peptide, residues 35-47 of saposin A]
p53 expression (in words) [2, 10]: sufficient to stimulate
Tsp-1 expression (in words) [3, 11]: sufficient to stimulate
MDM2 protein level (in words) [4, 10]: down regulation

LEKTCDWLPKPNMSASCKEI [SEQ. ID. No. 29, 20-mer, residues 31-50 of saposin A]
level of Tsp-1 stimulation relative to PC3 conditioned media ([5]; mice treated for 9 days, lung and liver): greater
Tsp-1 expression in the liver (in words) [5, 12]: stimulated
Tsp-1 expression in the lung (in words) [5, 12]: stimulated
stimulation of Tsp-1 expression in the liver [5, 13]: 4 fold
stimulation of Tsp-1 expression in the lung [5, 13]: 6 fold
Tsp-1 expression (in words) [3, 11]: able to stimulate

COc1ccc2c(c1)c(C1=C(c3c[nH]c4ccccc34)C(=O)NC1=O)cn2CCCN(C)C [GO 6983, reference compound]
stimulation of p53 by PC3 conditioned media in the presence of inhibitor ([6]; prostate fibroblasts treated with PC3 CM plus inhibitor): abolished
stimulation of Tsp-1 by PC3 conditioned media in the presence of inhibitor [7]: abolished

B1: prosaposin: saposin precursor protein, purified from PC3M-LN4 conditioned media with Talon metal affinity resin (protein, listed as Homo sapiens)
chain: MYALFLLASLLGAALAGPVLGLKCTRGSAVWCQNVKTASDCGAVKHCLQTVWNKPTVKSLPCDICKDVVTAAGDMLKDNATILVYLKTCDWLPKPNMSASCKIVDSYLPVILDIIKGMSRPGVCSALNLCSLQKHLALNHQKQLSNKIPLDMTVVAPFMANIPLLLYPQDGPRSKPQPKDNGDVCQDCIQMVTDIQTAVRTNSTFVQALVHVKCDRLGPGMADICKNYISQYSIAIQMMMHMQPKICALVGFCDVKMPMQTLVPAKVASKNVIPALLVPIKKHVPAKSDVYCVCFLVKVTKLIDNNKTKILDAFDKMCSKLPKSLSCQVVDTYGSSILSILLVSPLVCSMLHLCSGTRLPALTVHVTQPKDGGFCVCKKLVGYLDRNLKNSTKQILAALKGCSFLPDPYQKQCDQFVAYPVLIILVVMDPSFVCLKIGACPSAHKPLLGTKCIWGPSYWCQNTTAAQCNAVHCKRHVWN
expression of semaphorin 3F at the mRNA level [8]: stimulates
p53 expression (in words) ([6]; prostate fibroblasts, western blot): stimulated
stimulation of Tsp-1 expression ([7]; prostate fibroblasts, western blot, band volume density, purified Psap 5 μg): ~5 fold

B2: SLPCDICKDVVTAAGDMLKDNATEEEILVYLEKTCDWLPKPNMSASCKEIVDSYLPVILDIIKGEMSRPGEVCSALNLCES (protein, listed as Homo sapiens)
chain: SLPCDICKDVVTAAGDMLKDNATEEEILVYLEKTCDWLPKPNMSASCKEIVDSYLPVILDIIKGEMSRPGEVCSALNLCES
notes: cleavage product of Psap, expressed as truncation mutant
Tsp-1 expression (in words) ([3]; lung fibroblasts, CM from PC3M-LN4 cells transduced with truncated mutants of prosaposin): sufficient to stimulate
stimulation of Tsp-1 (in words) ([7]; prostate fibroblasts, conditioned media of PC3M-LN4 cells transfected with truncation mutants): minimal domain that is functionally required for the stimulation of Tsp-1

B3: RAP: Receptor Associate Protein, a competitive inhibitor of LRP binding (protein)
chain: YSREKNQPKPSPKRESGEEFRMEKLNQLWEKAQRLHLPPVRLAELHADLKIQERDELAWKKLKLDGLDEDGEKEARLIRNLNVILAKYGLDGKKDARQVTSNSLSGTQEDGLDDPRLEKLWHKAKTSGKFSGEELDKLWREFLHHKEKVHEYNVLLETLSRTEEIHENVISPSDLSDIKGSVLHSRHTELKEKLRSINQGLDRLRRVSHQGYSTEAEFEEPRVIDLWDLAQSANLTDKELEAFREELKHFEAKIEKHNHYQKQLEIAHEKLRHAESVGDGERVSRSREKHALLEGRTKELGYTVKKHLQDLSGRISRARHNEL
stimulation of Tsp-1 by PC3 conditioned media in the presence of inhibitor [7]: no longer stimulated
